Values of other authors in patent publication US20090081697A1, “Methods of growing crystals of free and antibiotic complexed large ribosomal subunits, and methods of rationally designing or identifying antibiotics using structure coordinate data derived from such crystals” (Yeda Research and Development Co. Ltd., priority 2001, published 2009).

Tests used:
[1] = relative to erythromycin
ribosomes [2] = conditions: Tenson et al. 1996
ribosomes [3] = conditions: compared with erythromycin; Hansen et al. 1999

Row | SMILES | acid stability [1] | further results
1 | CC[C@H]1OC(=O)[C@H](C)[C@@H](O[C@H]2C[C@@](C)(OC)[C@@H](O)[C@H](C)O2)[C@H](C)[C@@H](O[C@@H]2O[C@H](C)C[C@H](N(C)C)[C@H]2O)[C@](C)(O)C[C@@H](C)/C(=N\OCOCCOC)[C@H](C)[C@@H](O)[C@]1(C)O [roxithromycin] | increased acid stability relative to erythromycin | –
2 | CC[C@H]1OC(=O)[C@H](C)[C@@H](O[C@H]2C[C@@](C)(OC)[C@@H](O)[C@H](C)O2)[C@H](C)[C@@H](O[C@@H]2O[C@H](C)C[C@H](N(C)C)[C@H]2O)[C@](C)(O)C[C@@H](C)C(=O)[C@H](C)[C@@H](O)[C@]1(C)O [erythromycin] | – | length of peptides produced by erythromycin-bound ribosomes (ribosomes [2]): up to 8 residues
3 | CC[C@H]1OC(=O)[C@H](C)[C@@H](O[C@H]2C[C@@](C)(OC)[C@@H](O)[C@H](C)O2)[C@H](C)[C@@H](O[C@@H]2O[C@H](C)C[C@H](N(C)C)[C@H]2O)[C@](C)(OC)C[C@@H](C)C(=O)[C@H](C)[C@@H](O)[C@]1(C)O [clarithromycin] | increased acid stability relative to erythromycin | –
4 | CC[C@H]1OC(=O)[C@H](C)C(=O)[C@H](C)[C@@H](O[C@@H]2O[C@H](C)C[C@H](N(C)C)[C@H]2O)[C@](C)(OC)C[C@@H](C)C(=O)[C@H](C)[C@@H](O)[C@]1(C)O [RU56006] | – | Kd (ribosomes [3]): of the same order of magnitude as that of erythromycin
